Test results as given in article PMC5218480 (PLoS ONE, 2017).

Tested on: MV-4-11 cells
Assay: Gene expression microarray analysis (Affymetrix PrimeView) and GSEA
Type: cell-based, human
Parameters: RFU PODN (11730768_x_at) / Fold change /veh PODN (11730768_x_at) / RFU LINC00158 (11744669_a_at) / Fold change /veh LINC00158 (11744669_a_at) / RFU DUSP10 (11751237_a_at) / Fold change /veh DUSP10 (11751237_a_at) / RFU ID3 (11757404_x_at) / Fold change /veh ID3 (11757404_x_at) / RFU PLEKHG5 (11737974_s_at) / Fold change /veh PLEKHG5 (11737974_s_at) / RFU LRRC4B (11730491_at) / Fold change /veh LRRC4B (11730491_at) / RFU GIMAP4 (11747438_a_at) / Fold change /veh GIMAP4 (11747438_a_at) / RFU KRT8 (11758183_x_at) / Fold change /veh KRT8 (11758183_x_at) / RFU CNN1 (11734310_a_at) / Fold change /veh CNN1 (11734310_a_at) / RFU VPS37D (11726825_at) / Fold change /veh VPS37D (11726825_at) / RFU C10orf10 (11716522_x_at) / Fold change /veh C10orf10 (11716522_x_at) / RFU KIR2DL2 /// KIR2DL4 /// KIR2DL5A /// KIR2DL5B /// KIR2DS1 /// KIR2DS2 /// KIR2DS3 /// KIR2DS4 /// KIR3DL3 /// KIR3DL3 /// KIR3DS1 (11738374_at) / Fold change /veh KIR2DL2 /// KIR2DL4 /// KIR2DL5A /// KIR2DL5B /// KIR2DS1 /// KIR2DS2 /// KIR2DS3 /// KIR2DS4 /// KIR3DL3 /// KIR3DL3 /// KIR3DS1 (11738374_at) / RFU C1QL1 (11718748_at) / Fold change /veh C1QL1 (11718748_at) / RFU TMPRSS4 (11747572_a_at) / Fold change /veh TMPRSS4 (11747572_a_at) / RFU HAMP (11756126_x_at) / Fold change /veh HAMP (11756126_x_at) / RFU RNFT2 (11725882_a_at) / Fold change /veh RNFT2 (11725882_a_at) / RFU NR4A2 (11747474_a_at) / Fold change /veh NR4A2 (11747474_a_at) / RFU ABCC12 (11746883_a_at) / Fold change /veh ABCC12 (11746883_a_at) / RFU TMEM136 (11760407_x_at) / Fold change /veh TMEM136 (11760407_x_at) / RFU CLDN22 /// WWC2 (11732394_at) / Fold change /veh CLDN22 /// WWC2 (11732394_at) / RFU HLA-DPB1 (11760878_x_at) / Fold change /veh HLA-DPB1 (11760878_x_at) / RFU SPINT1 (11716480_a_at) / Fold change /veh SPINT1 (11716480_a_at) / RFU GAP43 (11754022_s_at) / Fold change /veh GAP43 (11754022_s_at) / RFU A4GNT (11735810_at) / Fold change /veh A4GNT (11735810_at) / RFU PRB3 (11715151_x_at) / Fold change /veh PRB3 (11715151_x_at) / RFU TUBB4B (11761932_at) / Fold change /veh TUBB4B (11761932_at) / RFU CAPN14 (11732068_a_at) / Fold change /veh CAPN14 (11732068_a_at) / RFU TMCC2 (11721928_a_at) / Fold change /veh TMCC2 (11721928_a_at) / RFU IRGQ (11745062_a_at) / Fold change /veh IRGQ (11745062_a_at) / RFU FAM174B (11720279_a_at) / Fold change /veh FAM174B (11720279_a_at) / RFU TMPRSS4 (11748680_a_at) / Fold change /veh TMPRSS4 (11748680_a_at) / RFU FAM212B (11763350_a_at) / Fold change /veh FAM212B (11763350_a_at) / RFU PLEKHG5 (11743358_a_at) / Fold change /veh PLEKHG5 (11743358_a_at) / RFU ZSCAN30 (11745921_a_at) / Fold change /veh ZSCAN30 (11745921_a_at) / RFU CMKLR1 (11741424_a_at) / Fold change /veh CMKLR1 (11741424_a_at) / RFU LOC101060620 /// MAPK8IP1 (11723275_at) / Fold change /veh LOC101060620 /// MAPK8IP1 (11723275_at) / RFU SPTSSB (11747773_x_at) / Fold change /veh SPTSSB (11747773_x_at) / RFU PRSS12 (11739890_at) / Fold change /veh PRSS12 (11739890_at) / RFU BIN1 (11741810_x_at) / Fold change /veh BIN1 (11741810_x_at) / RFU WNT11 (11732464_a_at) / Fold change /veh WNT11 (11732464_a_at) / RFU C10orf10 (11716521_a_at) / Fold change /veh C10orf10 (11716521_a_at) / RFU C5orf56 (11738089_at) / Fold change /veh C5orf56 (11738089_at) / RFU CYB561 (11721691_x_at) / Fold change /veh CYB561 (11721691_x_at) / RFU ANKRD19P (11752326_a_at) / Fold change /veh ANKRD19P (11752326_a_at) / RFU OR2T12 /// OR2T33 /// OR2T8 (11738714_s_at) / Fold change /veh OR2T12 /// OR2T33 /// OR2T8 (11738714_s_at) / RFU VCAN (11748164_a_at) / Fold change /veh VCAN (11748164_a_at) / RFU JSRP1 (11732532_at) / Fold change /veh JSRP1 (11732532_at) / RFU KRTAP10-11 (11738290_x_at) / Fold change /veh KRTAP10-11 (11738290_x_at) / RFU MYO3A (11730013_a_at) / Fold change /veh MYO3A (11730013_a_at) / RFU EBF3 (11725865_a_at) / Fold change /veh EBF3 (11725865_a_at) / RFU CAMK2N1 (11719241_x_at) / Fold change /veh CAMK2N1 (11719241_x_at) / RFU C5orf56 (11738088_a_at) / Fold change /veh C5orf56 (11738088_a_at) / RFU OLFML3 (11715873_a_at) / Fold change /veh OLFML3 (11715873_a_at) / RFU LOC100653217 /// NTM (11731650_a_at) / Fold change /veh LOC100653217 /// NTM (11731650_a_at) / RFU MAPK11 (11762145_a_at) / Fold change /veh MAPK11 (11762145_a_at) / RFU FIZ1 (11724087_x_at) / Fold change /veh FIZ1 (11724087_x_at) / RFU OASL (11726364_x_at) / Fold change /veh OASL (11726364_x_at) / RFU SOX15 (11748057_x_at) / Fold change /veh SOX15 (11748057_x_at) / RFU CD79A (11719716_a_at) / Fold change /veh CD79A (11719716_a_at) / RFU HIST1H1D (11736915_at) / Fold change /veh HIST1H1D (11736915_at) / RFU CASKIN2 (11723855_a_at) / Fold change /veh CASKIN2 (11723855_a_at) / RFU LOC730098 (11760151_x_at) / Fold change /veh LOC730098 (11760151_x_at) / RFU OR4N2 (11742367_at) / Fold change /veh OR4N2 (11742367_at) / RFU PRRT2 (11749266_a_at) / Fold change /veh PRRT2 (11749266_a_at) / RFU SNX32 (11753110_a_at) / Fold change /veh SNX32 (11753110_a_at) / RFU CDHR5 (11726645_a_at) / Fold change /veh CDHR5 (11726645_a_at) / RFU RCAN1 (11760418_a_at) / Fold change /veh RCAN1 (11760418_a_at) / RFU FAM167A (11723789_a_at) / Fold change /veh FAM167A (11723789_a_at) / RFU FAM26E (11764081_at) / Fold change /veh FAM26E (11764081_at) / RFU ISYNA1 (11749810_s_at) / Fold change /veh ISYNA1 (11749810_s_at) / RFU ACY1 (11761880_at) / Fold change /veh ACY1 (11761880_at) / RFU 11764098_at / Fold change /veh 11764098_at / RFU SAMD14 (11745864_x_at) / Fold change /veh SAMD14 (11745864_x_at) / RFU NPB (11741838_a_at) / Fold change /veh NPB (11741838_a_at) / RFU TMPRSS6 (11731388_a_at) / Fold change /veh TMPRSS6 (11731388_a_at) / RFU KRTAP10-2 (11738614_at) / Fold change /veh KRTAP10-2 (11738614_at) / RFU ARHGAP8 /// PRR5-ARHGAP8 (11727945_x_at) / Fold change /veh ARHGAP8 /// PRR5-ARHGAP8 (11727945_x_at) / RFU KRTAP5-7 /// NADSYN1 (11734609_at) / Fold change /veh KRTAP5-7 /// NADSYN1 (11734609_at) / RFU RASL12 (11751679_a_at) / Fold change /veh RASL12 (11751679_a_at) / RFU CDKN2B (11736163_a_at) / Fold change /veh CDKN2B (11736163_a_at) / RFU PRF1 (11729649_at) / Fold change /veh PRF1 (11729649_at) / RFU, ZNF638 /// ZNF638-IT1 / Fold change vs veh, ZNF638 /// ZNF638-IT1 / RFU, PANK3 / Fold change vs veh, PANK3 / RFU, SH3YL1 / Fold change vs veh, SH3YL1 / RFU, ZEB2 / Fold change vs veh, ZEB2 / RFU, NRIP1 / Fold change vs veh, NRIP1 / RFU, PTTG1IP / Fold change vs veh, PTTG1IP / RFU, CAPN2 / Fold change vs veh, CAPN2 / RFU, MED14 / Fold change vs veh, MED14 / RFU, SNORA58 / Fold change vs veh, SNORA58 / RFU, C1orf63 / Fold change vs veh, C1orf63 / RFU, LRRFIP1 / Fold change vs veh, LRRFIP1 / RFU, NDUFAF7 / Fold change vs veh, NDUFAF7 / RFU, SLC12A2 / Fold change vs veh, SLC12A2 / RFU, IBTK / Fold change vs veh, IBTK / RFU, ESF1 / Fold change vs veh, ESF1 / Fold change vs veh, TMEM50B / RFU, TAOK1 / Fold change vs veh, TAOK1 / RFU, ACBD3 / Fold change vs veh, ACBD3 / RFU, TMA16 / Fold change vs veh, TMA16 / RFU, RWDD3 / Fold change vs veh, RWDD3 / RFU, BCAT1 / Fold change vs veh, BCAT1 / RFU, EDEM3 / Fold change vs veh, EDEM3 / RFU, TMEM33 / Fold change vs veh, TMEM33 / RFU, WDR75 / Fold change vs veh, WDR75 / RFU, AHCTF1 / Fold change vs veh, AHCTF1 / RFU, TFRC / Fold change vs veh, TFRC / RFU, ZDHHC17 / Fold change vs veh, ZDHHC17 / RFU, NOM1 / Fold change vs veh, NOM1 / RFU, ARL8B / Fold change vs veh, ARL8B / RFU, ZBTB11 / Fold change vs veh, ZBTB11 / RFU, TAMM41 / Fold change vs veh, TAMM41 / RFU, KIAA1704 /// LOC100996395 / Fold change vs veh, KIAA1704 /// LOC100996395 / RFU, ING1 / Fold change vs veh, ING1 / RFU, TRMT61B / Fold change vs veh, TRMT61B / RFU, FUBP3 / Fold change vs veh, FUBP3 / RFU, TP53 / Fold change vs veh, TP53 / RFU, TNKS2 / Fold change vs veh, TNKS2 / RFU, ZFP14 / Fold change vs veh, ZFP14 / RFU, ACTR2 / Fold change vs veh, ACTR2 / RFU, PPP3R1 / Fold change vs veh, PPP3R1 / RFU, PIK3R1 / Fold change vs veh, PIK3R1 / RFU, HNRNPA1 / Fold change vs veh, HNRNPA1 / RFU, RNF170 / Fold change vs veh, RNF170 / RFU, ZNF28 / Fold change vs veh, ZNF28 / RFU, RNGTT / Fold change vs veh, RNGTT / RFU, OGT / Fold change vs veh, OGT / RFU, BRD1 / Fold change vs veh, BRD1 / RFU, MARS / Fold change vs veh, MARS / RFU, ZNF655 / Fold change vs veh, ZNF655 / RFU, FAHD1 / Fold change vs veh, FAHD1 / RFU, BDP1 / Fold change vs veh, BDP1 / RFU, LRRCC1 / Fold change vs veh, LRRCC1 / RFU, ARID1A / Fold change vs veh, ARID1A / RFU, ZNF146 / Fold change vs veh, ZNF146 / RFU, ZNF330 / Fold change vs veh, ZNF330 / RFU, GPN3 / Fold change vs veh, GPN3 / RFU, C9orf123 / Fold change vs veh, C9orf123 / RFU, N4BP2L2 / Fold change vs veh, N4BP2L2 / RFU, ARFIP1 / Fold change vs veh, ARFIP1 / RFU, FAM179B / Fold change vs veh, FAM179B / RFU, BCL10 / Fold change vs veh, BCL10 / RFU, UHRF1BP1L / Fold change vs veh, UHRF1BP1L / RFU, BET1 / Fold change vs veh, BET1 / RFU, CNOT2 / Fold change vs veh, CNOT2 / RFU, ZNF268 / Fold change vs veh, ZNF268 / Fold change vs veh, ZNF507 / RFU, DGCR2 / Fold change vs veh, DGCR2 / RFU, WDSUB1 / Fold change vs veh, WDSUB1 / Fold change vs veh, HSP90B1 /// MIR3652 / RFU, ADSS / Fold change vs veh, ADSS / RFU, GK / Fold change vs veh, GK / RFU, ZNF148 / Fold change vs veh, ZNF148 / RFU, TAF9 / Fold change vs veh, TAF9 / RFU, SLC1A5 / Fold change vs veh, SLC1A5 / RFU, SLMO2 / Fold change vs veh, SLMO2 / RFU, ABCC4 / Fold change vs veh, ABCC4 / RFU, LOC101060439 /// RAP1B / Fold change vs veh, LOC101060439 /// RAP1B / RFU, RFX7 / Fold change vs veh, RFX7 / RFU, GTPBP10 / Fold change vs veh, GTPBP10 / RFU, CNEP1R1 / Fold change vs veh, CNEP1R1 / RFU, BIVM-ERCC5 /// ERCC5 / Fold change vs veh, BIVM-ERCC5 /// ERCC5 / RFU, ILF3 / Fold change vs veh, ILF3 / RFU 11762660_at / Fold change /veh 11762660_at / RFU VCAN (11757783_s_at) / Fold change /veh VCAN (11757783_s_at) / RFU DDX43 (11728927_at) / Fold change /veh DDX43 (11728927_at) / RFU KRT8 (11758188_x_at) / Fold change /veh KRT8 (11758188_x_at) / RFU NKD1 (11759106_at) / Fold change /veh NKD1 (11759106_at) / RFU SRD5A1 (11742802_a_at) / Fold change /veh SRD5A1 (11742802_a_at) / RFU TPSAB1 /// TPSB2 (11721975_s_at) / Fold change /veh TPSAB1 /// TPSB2 (11721975_s_at) / RFU GSTM3 (11746129_a_at) / Fold change /veh GSTM3 (11746129_a_at) / RFU IL23R (11737362_x_at) / Fold change /veh IL23R (11737362_x_at) / RFU TMEM51 (11727254_a_at) / Fold change /veh TMEM51 (11727254_a_at) / RFU PIWIL2 (11732686_x_at) / Fold change /veh PIWIL2 (11732686_x_at) / RFU ORM1 (11744905_x_at) / Fold change /veh ORM1 (11744905_x_at) / RFU CCDC152 (11743942_at) / Fold change /veh CCDC152 (11743942_at) / RFU ECM1 (11717891_a_at) / Fold change /veh ECM1 (11717891_a_at) / RFU IL23R (11748794_a_at) / Fold change /veh IL23R (11748794_a_at) / RFU TNFAIP8L3 (11732012_x_at) / Fold change /veh TNFAIP8L3 (11732012_x_at) / RFU MBOAT4 (11741988_at) / Fold change /veh MBOAT4 (11741988_at) / RFU 11764193_at / Fold change /veh 11764193_at / RFU TMEM53 (11763286_at) / Fold change /veh TMEM53 (11763286_at) / RFU MAGEB2 (11727129_at) / Fold change /veh MAGEB2 (11727129_at) / RFU TMEM200A (11744735_a_at) / Fold change /veh TMEM200A (11744735_a_at) / RFU CCDC152 (11751479_a_at) / Fold change /veh CCDC152 (11751479_a_at) / RFU FAM211A (11726209_a_at) / Fold change /veh FAM211A (11726209_a_at) / RFU RGS16 (11746705_a_at) / Fold change /veh RGS16 (11746705_a_at) / RFU VCAN (11755009_s_at) / Fold change /veh VCAN (11755009_s_at) / RFU RHOB (11743442_s_at) / Fold change /veh RHOB (11743442_s_at) / RFU RGS16 (11720943_a_at) / Fold change /veh RGS16 (11720943_a_at) / RFU RGS16 (11720944_at) / Fold change /veh RGS16 (11720944_at) / RFU, VPS4B / Fold change vs veh, VPS4B / RFU, CREB1 / Fold change vs veh, CREB1 / RFU, DNAJC13 / Fold change vs veh, DNAJC13 / RFU, GNAQ / Fold change vs veh, GNAQ / RFU, CDK5R1 / Fold change vs veh, CDK5R1 / RFU, ZRANB3 / Fold change vs veh, ZRANB3 / RFU, CUL4A / Fold change vs veh, CUL4A / RFU, CCNY / Fold change vs veh, CCNY / RFU, UFL1 / Fold change vs veh, UFL1 / RFU, COG3 / Fold change vs veh, COG3 / RFU, DIAPH2 / Fold change vs veh, DIAPH2 / RFU, SKA2 / Fold change vs veh, SKA2 / RFU, AFF3 / Fold change vs veh, AFF3 / RFU, LMF1 / Fold change vs veh, LMF1 / RFU, IPO11 / Fold change vs veh, IPO11 / RFU, DFFB / Fold change vs veh, DFFB / RFU, FOXP1 / Fold change vs veh, FOXP1 / RFU, CARD8 / Fold change vs veh, CARD8 / RFU, STRN3 / Fold change vs veh, STRN3 / RFU, ADK / Fold change vs veh, ADK / RFU, RASSF2 / Fold change vs veh, RASSF2 / RFU, WIPF1 / Fold change vs veh, WIPF1 / RFU, LARP1B / Fold change vs veh, LARP1B / RFU, RASA1 / Fold change vs veh, RASA1 / RFU, RB1 / Fold change vs veh, RB1 / RFU, PPFIA1 / Fold change vs veh, PPFIA1 / RFU, MAT2A / Fold change vs veh, MAT2A / RFU, CCT5 / Fold change vs veh, CCT5 / RFU, WDR92 / Fold change vs veh, WDR92 / RFU, CUX1 / Fold change vs veh, CUX1 / RFU, TTC7A / Fold change vs veh, TTC7A / RFU, TMEM135 / Fold change vs veh, TMEM135 / RFU, DEPTOR / Fold change vs veh, DEPTOR / RFU, CPM / Fold change vs veh, CPM / RFU, DNAJB6 / Fold change vs veh, DNAJB6 / RFU, CACNA2D3 / Fold change vs veh, CACNA2D3 / RFU, DTX4 / Fold change vs veh, DTX4 / RFU, TFCP2 / Fold change vs veh, TFCP2 / RFU, GMCL1 /// GMCL1P1 / Fold change vs veh, GMCL1 /// GMCL1P1 / RFU, AEBP2 / Fold change vs veh, AEBP2 / RFU, SNHG1 /// SNORD22 /// SNORD25 /// SNORD26 /// SNORD27 /// SNORD28 /// SNORD29 /// SNORD31 / Fold change vs veh, SNHG1 /// SNORD22 /// SNORD25 /// SNORD26 /// SNORD27 /// SNORD28 /// SNORD29 /// SNORD31 / Fold change (Aza/veh), C12orf56 (ProbeSet 11735607_a_at) / Fold change (ACY-1035/veh), C12orf56 (ProbeSet 11735607_a_at) / Fold change (Aza/veh), FGFR1OP (ProbeSet 11751329_s_at) / Fold change (ACY-1035/veh), FGFR1OP (ProbeSet 11751329_s_at) / Fold change (Aza/veh), VPS36 (ProbeSet 11739960_a_at) / Fold change (ACY-1035/veh), VPS36 (ProbeSet 11739960_a_at) / RFU SYPL1 (11715823_x_at) / Fold change /veh SYPL1 (11715823_x_at) / RFU IGFBP7 (11715501_s_at) / Fold change /veh IGFBP7 (11715501_s_at) / RFU REEP3 (11722064_at) / Fold change /veh REEP3 (11722064_at) / RFU IGLL1 (11728026_x_at) / Fold change /veh IGLL1 (11728026_x_at): dose or concentration left out as unconfirmed
Conditions: MV-4-11 cells, 48 hours

SMILES: Nc1ccc(-c2cccs2)cc1NC(=O)c1ccc2c(c1)cc(C1CC1)n2CCN1CCOCC1 [ACY-1035]
- Fold change /veh MYO3A (11730013_a_at): 1.10
